According to ChEMBL document CHEMBL1155619, “Kurstakins: a new class of lipopeptides isolated from Bacillus thuringiensis” (2000):
Activity calls are given as the source filed them. No cut-off for these calls is given here. Starred links: 1 amine or outer side, 2 acyl side, 3 side chain; linkers in the order of their positions; H or OH if unused. Positions of bridges follow the written chain, without caps; N, C: chain ends. Non-standard residues stand in square brackets, D forms with d. Residues, ends and D or L forms follow the SMILES beside them. X1 = CC(C)CCCCCCCCC[C@H](CC(=O)[*:1])O[*:2]

Tested on: Stachybotrys chartarum
Test: Antifungal activity against Stachybotrys charatum assessed as zone of inhibition at 80 ug after 24 hrs
Format: functional

SMILES: CC(C)CCCCCCCCC[C@@H]1CC(=O)N[C@@H](CCC(=O)O)C(=O)N[C@@H](CC(C)C)C(=O)N[C@H](CC(C)C)C(=O)N[C@@H](C(C)C)C(=O)N[C@@H](CC(=O)O)C(=O)N[C@H](CC(C)C)C(=O)N[C@@H](CC(C)C)C(=O)O1 (EL[dL]VD[dL]L; linker N-C via X1)
- Activity: inactive
